Assay results from paper PMC11591284, “Development and Optimization of a Redox Enzyme-Based Fluorescence Biosensor for the Identification of MsrB1 Inhibitors” (Antioxidants, 2024).

Tests used:
MsrB1 [1] = biological target: T1, MsrB1 (Mus musculus, UniProt Q9JLC3, U95C); assay: NADPH consumption assay of MsrB1 activity; type: biochemical; conditions: absorbance at 340 nm, 900 s vs 0 min; approximately 50 μM compound; DMSO control 0.638
T1 construct: made in house
T1 sequence (Q9JLC3 1-116 U95C): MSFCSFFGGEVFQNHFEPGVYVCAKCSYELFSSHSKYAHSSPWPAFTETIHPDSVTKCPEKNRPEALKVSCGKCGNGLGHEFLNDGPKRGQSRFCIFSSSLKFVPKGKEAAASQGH
Procedure: The activity of MsrB1 was assessed over a 900-s period in a 20 mM 4-(2-hydroxyethyl)-1-piperazineethanesulfonic acid (HEPES) buffer at pH 7.5 and 37 °C. The reaction mixture contained 500 μM N-AcMetO, 6 μM MsrB1, 2 μM mouse thioredoxin, 1 μM mouse thioredoxin reductase, 50 μM NADPH, and approximately 50 μM of a chemical compound. All components, except for the chemical compound, substrate (N-AcMetO), and NADPH, were pre-mixed. The chemical compound was added and incubated for 10 min. NADPH (50 μM) and 500 μM N-AcMetO were added before absorbance measurements began. The rate of NADPH oxidation was monitored by measuring absorbance at 340 nm every 30 s until the reaction was complete.

[2] = biological target: T2, Recombinant mouse MsrB1 protein (Mus musculus, UniProt Q9JLC3, U95C); assay: Microscale thermophoresis (MST) binding assay; conditions: read-out: KD ± SD
T2 construct: made in house; host or cells: E. coli (inferred; Rosetta2 (DE3) pLysS and pET-28a are described only for the RIYsense fusion)
T2 sequence (Q9JLC3 1-116 U95C): T1 sequence (Q9JLC3 1-116 U95C)
Procedure: MST analysis was performed using the Monolith NT.115 system (NanoTemper Technologies, München, Germany). Recombinant mouse MsrB1 protein was labeled with the Monolith His-Tag Labeling Kit RED-tris-NTA 2nd Generation (NanoTemper Technologies, Germany). The protein was prepared at a concentration of 200 nM, and the RED-tris-NTA 2nd Generation dye was diluted to 100 nM in the PBS-T (Tween 20) buffer. A mixture of 100 μL of 200 nM protein and 100 μL of 100 nM dye was incubated at RT for 30 min. After incubation, the sample was centrifuged at 13,000 rpm at 4 °C for 10 min, and the supernatant was transferred to a new tube, completing the protein labeling process and preparing the sample for analysis. Inhibitor compounds were serially diluted in DMSO, starting at a concentration of 1.25 mM (1:1 dilution, 16 points), and then each of the 16 dilutions was further diluted fivefold with PBS-T buffer. Next, 10 μL of the diluted compounds were mixed with 10 μL of the labeled protein, followed by resuspension and incubation for 10 min at RT. The samples were loaded into capillaries in serial order and analyzed using the Monolith NT.115 system at 60% LED power and 60% MST power. Changes in normalized fluorescence, dependent on the concentration of the compounds after 30 s of MST on time, were analyzed to determine Kd values.

MsrB1 [3] = biological target: T1, MsrB1; assay: MsrB1 activity assay by HPLC with dabsylated MetO as substrate; type: biochemical; conditions: dabsyl-MetO to dabsyl-Met
Procedure: Methionine sulfoxide reductase B1 activity was determined using dabsylated MetO as substrate. […] The reaction was conducted for 30 min at 37 °C in a water bath and stopped by adding 200 μL of acetonitrile and vortexing. The reaction product, dabsyl-Met, was analyzed by HPLC using a ZORBAX RX-C18 column (5 μm; 4.6 × 150 mm). The column was pre-equilibrated with 0.14 M sodium acetate (pH 6.1), 0.5 mL/L triethylamine, and 30% acetonitrile. A total of 50 μL of the sample was loaded onto the column. The flow rate was 1 mL·min^−1, and a linear gradient elution mode was used (30% to 70%). Dabsyl-Met was detected via absorbance at 436 nm.

[4] = tested on: bone marrow-derived macrophages (BMDMs); assay: Cytokine mRNA expression in LPS-stimulated bone marrow-derived macrophages; type: cell-based, mouse; conditions: WT BMDMs, 1 μM inhibitor, LPS stimulation 24 h
Procedure: Bone marrow-derived macrophages (BMDMs) were generated by culturing bone marrow cells isolated from 8-week-old male C57BL/6 mice and MsrB1 knockout (KO) mice. The cells were cultured in high-glucose Dulbecco’s Modified Eagle Medium (DMEM) (Cytiva, Marlborough, MA, USA) supplemented with 10% fetal bovine serum (FBS), 100 U·mL^−1 penicillin-streptomycin (Gibco, Waltham, MA, USA), 20 mM HEPES (Gibco, Waltham, MA, USA), and 50 ng·mL^−1 recombinant mouse macrophage colony-stimulating factor (M-CSF) (BioLegend, San Diego, CA, USA). On day 3, 10 mL of fresh medium containing 50 ng·mL^−1 M-CSF was added to the cultures. On day 5, cells were treated with 1 μM MsrB1 inhibitors. On day 6, cells were treated with LPS (BioLegend, San Diego, CA, USA) for 24 h. Following treatment, cells were harvested, and total RNA was extracted using the High-Capacity cDNA Reverse Transcription Kit (Applied Biosystems, Foster City, CA, USA). Gene expression of IL-10 and IL-1rn mRNA was analyzed using the QuantStudio 3 Real-Time PCR system.

C57BL/6 mice = assay: TPA-induced acute skin inflammation (ear edema) model; type: in vivo, mouse; conditions: WT mice, 0.5 μM inhibitor in drinking water for 21 days, topical TPA
Procedure: Six-week-old male wild-type (WT) C57BL/6 mice and MsrB1 knockout (KO) mice were used in this experiment. The mice were provided with 50 mL water containing either 0.5 μM MsrB1 inhibitors dissolved in 1% DMSO or 1% DMSO alone (control) for 21 days. After this period, 50 μg·mL^−1 of TPA was applied to the right ear of each mouse, while the left ear received acetone as a control. Twenty hours after the initial TPA application, a second dose was administered. The mice were then sacrificed, and ear tissue samples were collected. The tissues were fixed in 10% formalin, dehydrated, embedded in paraffin, and sectioned into slices 3–5 μm thick. The sections were deparaffinized, rehydrated, and stained with hematoxylin and eosin (H&E) for histological examination under microscopy.

| Structure (SMILES) | NADPH (Abs15min/Abs0min) (MsrB1 [1]) | Kd [2] | Relative enzyme activity of MsrB1 (MsrB1 [3]; 10 µM compound) | Relative enzyme activity of MsrB1 (MsrB1 [3]; 100 µM and 500 µM compound) | IL-1rn mRNA expression [4] | IL-10 mRNA expression [4] | Dermal area of TPA-treated auricle (H&E) compared to wild-type control mice (C57BL/6 mice) |
| --- | --- | --- | --- | --- | --- | --- | --- |
| CCc1ccc(C2=NN(c3ccc(S(N)(=O)=O)cc3)C(c3ccc(O)cc3)C2)cc1 (centres unmarked) [A06, 4-[5-(4-ethylphenyl)-3-(4-hydroxyphenyl)-3,4-dihydropyrazol-2-yl]benzenesulfonamide] | 0.942 | 28.3 ± 1.21 nM | no inhibition was observed | decreased in a concentration-dependent manner | reduced | significantly reduced | substantially more enlarged |
| CCc1ccc(-n2c3nc(=O)[nH]c(=O)c-3cc3c(Cl)cccc32)cc1 [B03, 6-chloro-10-(4-ethylphenyl)pyrimido[4,5-b]quinoline-2,4-dione] | 0.918 | 97.1 ± 1.6 nM | no inhibition was observed | decreased in a concentration-dependent manner | reduced | significantly reduced | substantially more enlarged |
